From patent US20250154180A1, “CRK-LIKE (CRKL) ADAPTOR PROTEIN INHIBITORS AND METHODS OF MAKING AND USING THE SAME” (Rutgers, The State University of New Jersey, priority 2022, published 2025)

How the values were obtained:
[1] = system: CrkL phosphorylation by Ab1; test: in vitro kinase assay (CrkL phosphorylation by Ab1, western blot); type: biochemical; conditions: 40 μM candidate drug; compared to Gleevec positive control
Experimental: The expression of both CrkL and phosphor-CrkL in the negative control was arbitrarily set as “1”, and other treatments were relatively compared with the negative control. The pCrkL and CrkL were set as the phosphorylation ratio, while the kinase inhibition efficiency was set as (1−pCrkL/CrkL)×100%.
in vitro Kinase Assay—An in vitro kinase assay was conducted to detect CrkL phosphorylation by Ab1 and to determine whether candidate drugs identified in the AlphaScreen assays could inhibit phosphorylation. […] The pTyr207 antibody detected the level of phosphorylated CrkL. […]
To further verify the pCrkL inhibitor, a kinase assay was designed to evaluate the specificity of positive hits. […] The decreased amount of pCrkL can be detected and quantified by this kinase assay. […]
In total, ten candidate drugs (five that bind to Ab1 and five that bind to CrkL) were verified by the in vitro kinase inhibition assay followed by thermal shift analysis. […] For phosphorylated CrkL detection, only the phosphorylation of Tyr207 was specifically detected by the anti-CrkL phosphorylation antibodies (FIG. 3B). […]

Hs578T cells = test: MTT proliferation assay, Hs578T; type: cell-based; conditions: 2.5 μM, 48 hours, vs DMSO
Experimental: (§1) MTT assay—The MTT assay was used to detect cell proliferation. Briefly, cells were plated in a 96-well plate at a density of 50,000 cells/well in 200 μl of culture medium with candidate drugs to be tested (DMSO as a negative control). The treated cells were incubated for four hours a 37° C. with a 5% CO2 incubator to allow dark crystals to form at the bottom of the wells. After culturing for 48 hours, 10 ml of MTT reagent was added to each well and mixed gently for one minute. After aspirating the culture medium from each well, 100 μl of crystal dissolving solution was added to each well and incubated for 10 minutes at RT. The signal was quantified by measuring the absorbance in each sample at 570 nm using a microplate reader.

MDA-MB-231 cells = test: MTT proliferation assay, MDA-MB-231; type: cell-based
Experimental: as §1
Compound II is referred to as “NC5-SO2F” in FIGS. 7A-7C.
Cell proliferation was first determined by MTT assay as confirmation. […] CrkL is known to mediate the activation of both Raf/ERK and PI3K pathways. So, proteins that relate to these two pathways were utilized.

PBMCs = test: MTT assay, PBMCs from healthy donors; type: cell-based, human
Experimental: Peripheral blood mononuclear cells (PBMCs, line with the symbol □) were used to determine the specificities of the cytotoxic effects of Pomiferin. The survival curve of PBMC-average is from four different healthy donors. […]
as §1, with “After culturing for 48 hours, 10 ml of MTT reagent was added to each well and mixed gently for one minute.” left out

[2] = system: TNBC cells (MDA-231 and MDA-468); test: Annexin V/PI apoptosis, TNBC (MDA-231 and MDA-468); type: cell-based; conditions: 1 uM, 24 hours
Experimental: (§2) Annexin V/PI Staining—Experimental cells were collected, washed with 1×PBS, resuspended in the binding buffer, and stained with an Annexin V-FITC assay Kit (Millipore Sigma). The cells were incubated with 50 μg/ml Annexin V in 1× binding buffer at room temperature for 15 minutes, then 10 μg/ml propidium iodide for another 15 minutes and analyzed by flow cytometry (EPICS XL). Annexin V-positive/PI-negative cells were considered early apoptotic, cells with both Annexin V and PI-positive to be late apoptotic, and Annexin V negative but PI-positive to be “necrotic.” The percent of apoptosis was calculated as the sum of the percentages of both early and late apoptotic cells.
(§3) To figure out the features of cytotoxic effects of Pomiferin on breast cancer cells. Pomiferin-treated breast cancer cells were stained with an Annexin V/PI kit and measured them with Flow Cytometry.

PBMC cells = test: Annexin V/PI apoptosis, PBMC; type: cell-based, human; conditions: various concentrations, 24 hours
Experimental: as §2, §3

AML cell line (MoLM-13) = test: CCK-8 cell viability, MoLM-13; type: cell-based, human; conditions: 1 uM, 5 uM, 10 uM; 48 hours
Experimental: In this example, activities of NC5, Compound III, and the known chemotherapeutic, Cytarabine, were evaluated in the AML cell line (MoLM-13). MoLM-13 cells were collected and seeded at 5,000 cells/well in 96-well plates. The cells were incubated for 24 hours before the addition of either DMSO control or drug at various concentrations. After an additional 48 hours of incubation, 3 μL of CCK-8 was added to every well and incubated at 37° C. for 3 hours. Absorbance was measured at 460 nm in a plate reader. […] The related absorbance was normalized and plotted as line graphs. p-values were determined through two tails student t-tests (*=p<0.5, **=p<0.01, ***=p<0.001).

CC(C)=CCc1c2c(c3occ(-c4ccc(O)c(O)c4)c(=O)c3c1O)C=CC(C)(C)O2 [Pomiferin, 3′,4′,5-Trihydroxy-6″,6″-dimethyl-6-(3-methylbut-2-en-1-yl)-6″H-pyrano[2″,3″:7,8]isoflavone]
kinase inhibition effect (CrkL phosphorylation) [1]: comparable results similar to the kinase inhibition effect seen with Gleevec
cell proliferation (MTT) (Hs578T cells): had an inhibitory effect on proliferation
cell proliferation (MTT) (MDA-MB-231 cells; 1 uM, 5 uM and 10 uM, 24 hours): significantly inhibited cell proliferation
cell proliferation (MTT) (MDA-MB-231 cells; 2.5 μM, 48 hours, vs DMSO): blocked cell proliferation
cell proliferation (MTT) (PBMCs; 1 uM, 5 uM and 10 uM, 24 hours): no statistical difference
IC50 (PBMCs; Homo sapiens, 72 h, MTT, three days, PBMC average of four healthy donors): > 18 µM
sensitivity to Pomiferin (survival percentage, MTT) (PBMCs; five M Pomiferin for three days, compared with MDA-MD-231-LUC): more resistant to Pomiferin inhibition
apoptosis [2]: significantly induced apoptosis
apoptosis (PBMC cells): limited responses
cell viability (CCK-8) (AML cell line (MoLM-13)): decreased cell viability
